From publication PMC4468202, “Improved Visualization and Specific Binding for Metabotropic Glutamate Receptor Subtype 1 (mGluR1) Using [^11C]ITMM with Ultra-High Specific Activity in Small-Animal PET” (PLoS ONE, 2015)

Key:
[1] = tested on: translocater protein (TSPO); design: method as in PMID 20705143; details: ipsilateral side of an ischemic rat brain; cited from earlier work
[2] = target: mGluR1 (Rattus norvegicus, UniProt P23385); experiment: In vitro binding assay with [^18F]FITM using cerebellum homogenate; design: from tissue; host or cells: cerebellum homogenate; details: previous unpublished data, S4 Fig
Chain of mGluR1 (P23385 19-1199): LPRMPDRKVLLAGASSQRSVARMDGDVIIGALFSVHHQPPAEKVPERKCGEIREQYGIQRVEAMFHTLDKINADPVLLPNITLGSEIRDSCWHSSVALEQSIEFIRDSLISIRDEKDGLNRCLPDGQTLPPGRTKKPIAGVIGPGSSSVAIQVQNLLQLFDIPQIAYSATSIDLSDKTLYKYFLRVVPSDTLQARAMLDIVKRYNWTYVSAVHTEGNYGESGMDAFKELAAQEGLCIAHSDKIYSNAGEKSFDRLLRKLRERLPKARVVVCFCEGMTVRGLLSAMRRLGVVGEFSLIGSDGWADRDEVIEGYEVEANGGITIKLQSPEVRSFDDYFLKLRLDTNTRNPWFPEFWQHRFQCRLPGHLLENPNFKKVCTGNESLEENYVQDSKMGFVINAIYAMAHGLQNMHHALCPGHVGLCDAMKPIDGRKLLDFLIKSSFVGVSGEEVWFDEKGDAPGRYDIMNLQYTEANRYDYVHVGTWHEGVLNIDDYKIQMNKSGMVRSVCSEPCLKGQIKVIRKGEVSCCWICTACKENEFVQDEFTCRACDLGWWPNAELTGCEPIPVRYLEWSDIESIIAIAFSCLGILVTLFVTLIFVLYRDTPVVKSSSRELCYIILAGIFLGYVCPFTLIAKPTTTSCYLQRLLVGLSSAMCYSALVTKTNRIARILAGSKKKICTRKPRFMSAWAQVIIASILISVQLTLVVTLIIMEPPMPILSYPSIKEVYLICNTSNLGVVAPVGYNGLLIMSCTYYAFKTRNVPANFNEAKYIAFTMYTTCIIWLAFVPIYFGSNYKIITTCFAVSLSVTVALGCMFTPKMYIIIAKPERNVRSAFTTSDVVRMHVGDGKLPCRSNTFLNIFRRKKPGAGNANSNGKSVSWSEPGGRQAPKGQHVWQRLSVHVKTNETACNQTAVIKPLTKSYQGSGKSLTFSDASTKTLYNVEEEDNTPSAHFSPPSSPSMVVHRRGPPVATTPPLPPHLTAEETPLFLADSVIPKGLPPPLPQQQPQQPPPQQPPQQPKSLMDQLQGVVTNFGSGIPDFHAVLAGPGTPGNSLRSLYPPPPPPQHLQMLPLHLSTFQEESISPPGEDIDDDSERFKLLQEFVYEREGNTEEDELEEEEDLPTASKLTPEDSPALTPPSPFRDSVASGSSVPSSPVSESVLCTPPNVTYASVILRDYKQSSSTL

Structure (SMILES)	binding potential, ultra-high SA vs conventional SA [1]	binding sites [2]
Cn1c(=O)n(CC(=O)N([11CH3])Cc2ccccc2)c2nc(-c3ccccc3)ncc21 [[^11C]DAC]	roughly two times higher	
CC(C)Nc1cc(-c2csc(N(C)C(=O)c3ccc([18F])cc3)n2)ncn1 [[^18F]FITM, 4-[18F]fluoro-N-[4-[6-(isopropylamino)pyrimidin-4-yl]-1,3-thiazol-2-yl]-N-methylbenzamide]		two binding sites of [^18F]FITM possessing high and low affinities
